Data taken from patent US11439658B2, “Compositions and methods for suppressing MSUT2” (United States Government As Represented By The Department …, priority 2018, dated 2022).
Each block holds one molecule with its values, some of them ahead of it.

How the values were obtained:
[1] = biological target: T1, recombinant GST-MSUT2 binding to synthetic poly(A) RNA (Homo sapiens, UniProt Q6PJT7); assay: MSUT2/poly(A) RNA AlphaScreen assay; settings: dose validated hits of pilot AlphaScreen
T1 construct: fused on or other part: GST at the N-terminus (pGEX6P-1 vector)
T1 sequence (Q6PJT7 595-719 limits assumed): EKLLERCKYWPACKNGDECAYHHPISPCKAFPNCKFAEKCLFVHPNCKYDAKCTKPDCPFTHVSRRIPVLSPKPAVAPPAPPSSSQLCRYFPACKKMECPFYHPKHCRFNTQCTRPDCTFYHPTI
Description: To identify small-molecule inhibitors of the MSUT2 protein/poly(A) RNA interaction, a high-throughput AlphaScreen assay optimized for detecting recombinant GST-MSUT2 binding to synthetic poly(A) RNA. The MSUT2 AlphaScreen assay has been well optimized during its development for 384-well screening (z-score=0.96). Two high throughput AlphaScreens of 53,400 distinct small molecules have been completed. A multi-point dose analysis pilot screen of the Spectrum Collection was performed. […] Both the pilot screen and the screening approaches disclosed herein use the Quellos High-Throughput Screening Core at the University of Washington (UW).
Assay of inhibitor dose dependence. Hits identified in the pilot screen were validated by retesting resynthesized compounds over a wide concentration range. […] These hits will be validated by conducting a 14-point dose-response analysis with a drug concentration range from 100 μM down to 1.4 nM; the MSUT2/poly(A) RNA AlphaScreen Assay will be used to produce a readout. From this dose-response analysis, IC50 values will be calculated for dose-responsive hits. For the full scale screen 64 primary hits were identified and will be subject to dose validation as described for pilot screen compounds (and Ebselen, shown in FIG. 20).
The steps and set up for performing the ALPHA assay for MSUT2 binding to polyA are as follows: • 1. Dilutions are in assay buffer (1×PAMA final concentration). • 2. Scale is for 96 well assay in PE […] ½ area plate (total volume/well is 50 μL). • 3. Assays set up in low light conditions • 4. Add 20 μL of diluted donor bead (10 ug/mL) to well bringing well volume to 20 μL • 5. Add 10 μL diluted biotin RNA (15 nM)) bringing well volume to 30 μL • 6. Add 10 μL diluted GST-MSUT2 Protein (125 nM)) bringing well volume to 40 μL • 7. Incubate at room temp for 30 minutes in the dark • 8. Add 10 μl of diluted Acceptor bead (2.5 μg/mL) to well bringing well volume to 50 • 9. Incubate at room temp for 60 minutes in the dark • 10. Read Plate using standard AlphaAssay settings on Perkin Elmer EnSpire® Alpha microplate reader

[2] = system: wild type or MSUT2 KO mice; assay: Kainic acid induced gliosis in mice; assay type: in vivo, mouse; settings: hippocampi 3 days after single 25 mg/kg i.p.
Description: Shown are the hippocampi of wild type or MSUT2 KO mice 3 days after KA treatment (a single dose of 25 mg/kg KA administered i.p.). […] Scale bar=500 μm.

[3] = biological target: biotinylated poly(A)15 RNA; assay: Surface plasmon resonance (Biacore) binding to poly(A) RNA; settings: poly(A)15, five protein concentrations 1-0.6 μM
Description: Surface plasmon pesonance. SPR experiments were conducted on a Biacore T200 using the Biotin Capture Kit Series S following the manufacturer's instructions (GE). Biotin capture reagent was applied to the sensor chip at a flow rate of 2 μl/minute for 300 seconds. 1 nM biotinylated RNA (BiotinTEG-AAAAAAAAAAAAAAA; SEQ ID NO: 25) was captured at a flow rate of 10 μl/minute for 180 seconds. Samples were flowed across the sensor chip at 50 μl/minute for 120 seconds and the chip was regenerated for 120 seconds at a flow rate of 10 μl/minute. KD values for binding and disassociation were calculated from the binding kinetics of each protein at five concentrations using the Biacore T200 Software v3.1 application package (GE; 1, 0.9, 0.8, 0.7, 0.6 μM).

- IC50 [1]: 6800 nM
Molecule: O=S(=O)(O)c1cc(N=C=S)ccc1C=Cc1ccc(N=C=S)cc1S(=O)(=O)O [4,4′-Diisothiocyano-stilbene-2,2′ sulfonic acid]

- IC50 [1]: 1600 nM
Molecule: O=c1c2ccccc2[se]n1-c1ccccc1 [Ebselen]

Molecule: C=C(C)[C@H]1CN[C@H](C(=O)O)[C@H]1CC(=O)O [Kainic Acid]
- gliotic response (astrocytosis, IHC for GFAP) [2]: obvious and strong gliotic response

- IC50 [1]: 1700 nM
Molecule: COc1cc2c(cc1OC)-c1cc3ccc(OC)c(OC)c3c[n+]1CC2 [Palmatine]

- Kd [3]: 60 ± 15 nM
B1: MSUT2: recombinant mammalian suppressor of tauopathy 2, poly(A) RNA binding protein (protein)
chain: MEIGTEISRKIRSAIKGKLQELGAYVDEELPDYIMVMVANKKSQDQMTEDLSLFLGNNTIRFTVWLHGVLDKLRSVTTEPSSLKSSDTNIFDSNVPSNKSNFSRGDERRHEAAVPPLAIPSARPEKRDSRVSTSSQESKTTNVRQTYDDGAATRLMSTVKPLREPAPSEDVIDIKPEPDDLIDEDLNFVQENPLSQKKPTVTLTYGSSRPSIEIYRPPASRNADSGVHLNRLQFQQQQNSIHAAKQLDMQSSWVYETGRLCEPEVLNSLEETYSPFFRNNSEKMSMEDENFRKRKLPVVSSVVKVKKFNHDGEEEEEDDDYGSRTGSISSSVSVPAKPERRPSLPPSKQANKNLILKAISEAQESVTKTTNYSTVPQKQTLPVAPRTRTSQEELLAEVVQGQSRTPRISPPIKEEETKGDSVEKNQGTQQRQLLSRLQIDPVMAETLQMSQDYYDMESMVHADTRSFILKKPKLSEEVVVAPNQESGMKTADSLRVLSGHLMQTRDLVQPDKPASPKFIVTLDGVPSPPGYMSDQEEDMCFEGMKPVNQTAASNKGLRGLLHPQQLHLLSRQLEDPNGSFSNAEMSELSVAQKPEKLLERCKYWPACKNGDECAYHHPISPCKAFPNCKFAEKCLFVHPNCKYDAKCTKPDCPFTHVSRRIPVLSPKPAVAPPAPPSSSQLCRYFPACKKMECPFYHPKHCRFNTQCTRPDCTFYHPTINVPPRHALKWIRPQTSE

- Kd [3]: 237 ± 21 nM
B2: PABPN1: recombinant polyadenylate-binding nuclear protein 1 (protein, UniProt Q86U42 2-306, looked up)
Polyadenylate-binding protein …: AAAAAAAAAAGAAGGRGSGPGRRRHLVPGAGGEAGEGAPGGAGDYGNGLESEELEPEELLLEPEPEPEPEEEPPRPRAPPGAPGPGPGSGAPGSQEEEEEPGLVEGDPGDGAIEDPELEAIKARVREMEEEAEKLKELQNEVEKQMNMSPPPGNAGPVIMSIEEKMEADARSIYVGNVDYGATAEELEAHFHGCGSVNRVTILCDKFSGHPKGFAYIEFSDKESVRTSLALDESLFRGRQIKVIPKRTNRPGISTTDRGFPRARYRARTTNYNSSRSRFYSGFNSRPRGRVYRGRARATSWYSPY
